Measured values: US20200270575A1, “Culture System for Expanding Hematopoietic Stem Cells and/or Hematopoietic Progenitor Cells and the Method Thereof, Hematopoietic Stem Cells and Hematopoietic Progenitor Cells” (NEWISH TECHNOLOGY (BEIJING) CO., LTD., priority 2017, published 2020)

Experiments:
immunodeficient mice = assay: Transplantation experiment in vivo: reconstitution of human cells in bone marrow and peripheral blood after 4 months; details: for reconstruction effect of experimental group relative to control group (DMSO): 4 months; for blood cells in human peripheral blood (reconstitution proportion of peripheral blood) / reconstruction proportion of human blood cells in bone marrow (CD45+ cells): 4 months after transplantation
Procedure: On the 7th day of the culturing, the transplantation experiment in vivo was carried out at the meantime. The expanded CD34+ cells in the experimental group and the control group were respectively injected into the immunodeficient mice by bone marrow transplantation. Each group contain 8 mice, and each mouse was injected with the total cells expanded from 5000 original CD34+ cells. The reconstitution ratio of human cells in peripheral blood and bone marrow of immunodeficient mice were measured after 4 months. In the experimental group, the reconstruction proportion of human blood cells in bone marrow (CD45+ cells) reached about 50%, and the blood cells in human peripheral blood reached about 5%. In the control group, the reconstruction proportion of human blood cells in bone marrow reached about 20%, and the blood cells in human peripheral blood reached about 1%. The reconstruction effect of the experimental group was about 4 times higher than that of the control group after a general comparison.

[1] = system: cord blood-derived CD34+ cells; assay: In vitro expansion of CD34+CD45RA− cells, 7-day culture of cord blood-derived CD34+ cells; type: cell-based, human
Procedure: The material was derived from cord blood waste supplied by the company, and cord blood-derived CD34+ cells were isolated by magnetic bead sorting (MACS) as cultured materials in the following examples.
CD34+ cells were cultured based on the culture conditions of Table 1. The experimental group (the small chemical molecule is SP600125) and the control group (the small chemical molecule is replaced by DMSO, the volume ratio of DMSO: medium is 1:10000) were placed in the cell incubator at 37° C. with the concentration of 5% carbon dioxide, and half amount of the medium was changed every 2 days.
On the 7th day of the culturing, the ratio of CD34+CD45RA−cells was measured, and the fold expansion was counted and calculated. The CD34+CD45RA− in the experimental group was about 15 times in the fold expansion, while the CD34+CD45RA− in the control group was about 5 times in fold expansion.

LT-HSC = details: background, 2014 report; cited from earlier work
immunodeficiency mice = details: background, 2010 report; cited from earlier work
[2] = Example 5: cells expanded with 1 μM
[3] = Example 2: cells expanded with 4 μM
[4] = Example 3: cells expanded with 2 μM
[5] = Example 7: cells expanded with 5 μM
[6] = Example 4: cells expanded with 5 μM
[7] = Example 6: cells expanded with 0.5 μM

Structure (SMILES): CN(C)C/C=C/C(=O)Nc1cccc(C(=O)Nc2ccc(Nc3nccc(-c4cccnc4)n3)cc2)c1 [JNK-IN-7]
- reconstruction effect of experimental group relative to control group (DMSO) (immunodeficient mice; Example 5: 1 μM, general comparison): about 5 times
- blood cells in human peripheral blood (reconstitution proportion of peripheral blood) (immunodeficient mice; [2]): about 8.5%
- reconstruction proportion of human blood cells in bone marrow (CD45+ cells) (immunodeficient mice; [2]): about 58%
- proliferation amount of CD34+CD45RA− in the experimental group relative to control group (DMSO) ([1]; Example 5: 1 μM, SCF 200, FL 50, TPO 5 ng/ml, LDL 10 μg/ml, day 7): 2.5 times

Structure (SMILES): O=C1c2ccccc2-c2n[nH]c3cccc1c23 [SP600125]
- reconstruction effect of experimental group relative to control group (DMSO) (immunodeficient mice; Example 1: 4 μM, general comparison): about 4 times
- blood cells in human peripheral blood (reconstitution proportion of peripheral blood) (immunodeficient mice; Example 1: cells expanded with 4 μM): about 5%
- reconstruction proportion of human blood cells in bone marrow (CD45+ cells) (immunodeficient mice; Example 1: cells expanded with 4 μM, cells from 5000 original CD34+ cells per mouse): about 50%
- reconstruction effect of experimental group relative to control group (DMSO) (immunodeficient mice; Example 2: 4 μM, general comprehensive comparison): about 6 times
- blood cells in human peripheral blood (reconstitution proportion of peripheral blood) (immunodeficient mice; [3]): about 9%
- reconstruction proportion of human blood cells in bone marrow (CD45+ cells) (immunodeficient mice; [3]): about 70%
- reconstruction effect of experimental group relative to control group (DMSO) (immunodeficient mice; Example 3: 2 μM, general comparison): about 4 times
- blood cells in human peripheral blood (reconstitution proportion of peripheral blood) (immunodeficient mice; [4]): about 4%
- reconstruction proportion of human blood cells in bone marrow (CD45+ cells) (immunodeficient mice; [4]): about 40%
- reconstruction effect of experimental group relative to control group (DMSO) (immunodeficient mice; Example 7: 5 μM, general comparison): about 5.5 times
- blood cells in human peripheral blood (reconstitution proportion of peripheral blood) (immunodeficient mice; [5]): about 7.5%
- reconstruction proportion of human blood cells in bone marrow (CD45+ cells) (immunodeficient mice; [5]): about 58%
- fold expansion of CD34+CD45RA− cells at day 7 relative to the primary cells ([1]; Example 1: 4 μM, SCF 100, FL 100, TPO 50 ng/ml, LDL 10 μg/ml): about 15 times
- CD34+CD45RA− in the experimental group relative to control group (DMSO) ([1]; Example 2: 4 μM, SCF 50, FL 50, TPO 25 ng/ml, LDL 5 μg/ml, day 7): 2.5 times
- proliferation amount of CD34+CD45RA− in the experimental group relative to control group (DMSO) ([1]; Example 3: 2 μM, SCF 20, FL 50, TPO 20 ng/ml, LDL 5 μg/ml, day 7): 2 times
- proliferation amount of CD34+CD45RA− in the experimental group relative to control group (DMSO) ([1]; Example 7: 5 μM, SCF 500, FL 100, TPO 20 ng/ml, LDL 10 μg/ml, day 7): 2.3 times

Structure (SMILES): Cn1nnc(-c2ccc3c(c2)[nH]c2nc(Cc4ccccc4)nc(NC4CCC(N)CC4)c23)n1 (stereo not drawn) [UM171]
- maintenance of the function of hematopoietic reconstitution (LT-HSC): up to 6 months

Structure (SMILES): CC(C)n1cnc2c(NCCc3ccc(O)cc3)nc(-c3csc4ccccc34)nc21 [SR1]
- increase of the amount of exogenous hematopoietic cells detected in immunodeficiency mice (immunodeficiency mice): 17 times

Structure (SMILES): N#C/C(=C1/Nc2ccccc2S1)c1ccnc(NCCc2cccnc2)n1 [AEG-3482]
- reconstruction effect of experimental group relative to control group (DMSO) (immunodeficient mice; Example 4: 5 μM, general comparison): about 2.5 times
- blood cells in human peripheral blood (reconstitution proportion of peripheral blood) (immunodeficient mice; [6]): about 3.5%
- reconstruction proportion of human blood cells in bone marrow (CD45+ cells) (immunodeficient mice; [6]): about 35%
- proliferation amount of CD34+CD45RA− in the experimental group relative to control group (DMSO) ([1]; Example 4: 5 μM, SCF 10, FL 100, TPO 10 ng/ml, LDL 2 μg/ml, day 7): 2.3 times

Structure (SMILES): CN(C)C/C=C/C(=O)Nc1cccc(C(=O)Nc2ccc(Nc3nccc(-c4c(-c5ccccc5)nn5ccccc45)n3)cc2)c1 [JNK-IN-11]
- reconstruction effect of experimental group relative to control group (DMSO) (immunodeficient mice; Example 6: 0.5 μM, general comparison): about 8 times
- blood cells in human peripheral blood (reconstitution proportion of peripheral blood) (immunodeficient mice; [7]): about 12.5%
- reconstruction proportion of human blood cells in bone marrow (CD45+ cells) (immunodeficient mice; [7]): about 78%
- proliferation amount of CD34+CD45RA− in the experimental group relative to control group (DMSO) ([1]; Example 6: 0.5 μM, SCF 300, FL 100, TPO 20 ng/ml, LDL 10 μg/ml, day 7): 2.8 times
